From patent publication US7279500B2, “Sulfonamide cannabinoid agonists and antagonists” (Virginia Commonwealth University, priority 2002, dated 2007)
Like-named read-outs stand apart in the source and are kept apart here.

Columns and labels:
mouse vas deferens [1] = details: literature, Pertwee et al. 1996; cited from earlier work
mice = assay: Mouse tetrad test (sedation, analgesia, hypothermia) following i.v. administration; assay type: in vivo; details: for ED50: iv
Method: (§1) Mouse Tetrad and CB1 and CB2 receptor Affinity. The mouse tetrad and CB1 and CB2 receptor affinity assays were carried out as previously described in Wiley, J. L., Beletskaya, I. D., Ng, E. W., Dai, Z., Crocker, P. J., Mahadevan, A, Razdan, R. K., Martin, B. R., Resorcinols derivatives: a novel template for the delevopment of cannabinoid CB1/CB2 and CB2-selective agonists. J. Pharmacol. Exp. Ther. 301: 679-689, 2002.
(§2) The incorporation of sulfonaminde moieties is known to impart antagonistic activity in some classes of compounds. There is precedent for sulfonamide derivatives to show potent antagonist activity in peptidoleukotrienes (see for example, Matassa et al., J. Med. Chem. 1990, 33, 2621-2629; Jacobs et al., J. Med. Chem. 1993, 36, 394-409). In the development of the present invention, a sulfonamide moiety, SO2R, in which the identity of R was varied, was incorporated into the terminal position of a tetrahydrocannabinol (THC) side chain, which was also varied (saturated or unsaturated) as described above. The resulting compounds were tested for CB1 and CB2 receptor binding affinity, and cannabinoid agonist and antagonist properties using the mouse tetrad test, as described in Materials and Methods.
The compounds were tested for their CB1 and CB2 receptor binding ability, and their cannabinoid agonist and antagonist properties.

CB1 receptor [2] = biological target: T1, CB1 receptor (Rattus norvegicus, UniProt P20272); assay: GTPγS binding in rat brain membranes, compound alone (inverse agonism); assay type: biochemical; design: from tissue; host or cells: rat brain membranes; details: for GTPγS stimulation (1 μM): rat brain membranes
Source text: FIG. 2. Compound O-2050 lacks inverse agonism in GTPγS binding in rat brain membranes. X axis, concentration of O-2050 (M); Y axis, % stimulation of GTPγS binding.
In order to determine whether O-2050 had inverse agonist properties, the compound was examined alone in the GTPγS binding assay. […] The performance of O-2050 in this assay in comparison to two other compounds with unsaturated side chains and varying R groups (O-1991, R=ethyl, and O-1993, R=butyl) are given in Table 3.

CB2 receptor = CB2 receptor (Homo sapiens, UniProt P34972); assay: CB2 receptor affinity assay; assay type: binding
Method: as §1, §2

CB1 receptor [3] = biological target: CB1 receptor (UniProt P21554); assay: CB1 receptor affinity assay; assay type: binding; details: for Kd: read-out: CB1KD
Method: as §1, §2

mouse vas deferens [4] = assay: Mouse vas deferens, compound alone (inverse agonism); assay type: cell-based; details: up to 1000 nM
Source text: FIG. 4. Compound O-2050 lacks inverse agonism in GTPγS binding in mouse vas deferens. Y axis, % enhancement±s.e. (standard error of the mean) of GTPγS binding in mouse vas deferens by O-2050 at the indicated concentrations.
In order to determine whether O-2050 has inverse agonist properties in the mouse vas deferens, the compound was examined alone in this tissue preparation. […] O-2050 therefore differs from the putative inverse agonist, SR141716A, which does enhance the amplitude of these contractions in this bioassay system (e.g. see Pertwee et al., 1996, Eur. J. Pharmacol. 315: 195-201). […] Therefore, O-2050 lacks inverse agonist properties in yet another system that is regulated by the cannabinoids.

CB1 receptor [5] = biological target: T2, CB1 receptor (Mus musculus, UniProt P47746); assay: Antagonism of WIN 55,212-2 inhibition of electrically induced contractions of mouse vas deferens; assay type: cell-based
T2 construct: O-2050 behaves as a CB1 receptor antagonist at naturally expressed CB1 receptors; from tissue; host or cells: mouse vas deferens
Method: FIG. 3. Compound O-2050 antagonism of WIN 55,212-2 in mouse vas deferens. X axis, concentration of WIN 55,212-2; Y axis, % inhibition of WIN 55,212-2 activity (mean % inhibition±standard error [s.e.] of the mean). Open circles=vehicle control (WIN 55212-2 added after pretreatment with dimethylsulfoxide (DMSO), the solvent in which the O-2050 was dissolved; open triangles: 1 nM O-2050 (WIN 55,212-2 added after pretreatment with 1 nM O-2050); filled circles: 10 nM O-2050 (WIN 55,212-2 added after pretreatment with 10 nM O-2050); filled triangles: 31.62 nM O-2050 (WIN 55,212-2 added after pretreatment with 31.62 nM O-2050); filled squares: 100 nM O-2050 (WIN 55,212-2 added after pretreatment with 100 nM O-2050.
These observations were extended by examining O-2050 in the mouse vas deferens, a smooth muscle preparation that is regulated by the cannabinoid system.

CB1 receptor [6] = biological target: T1, CB1 receptor; assay: Block of CP 55,940-stimulated GTPγS binding in rat brain tissue; assay type: biochemical; design: from tissue; host or cells: rat brain tissue
Method: FIG. 1. Compound O-2050 blocks CP 55,940 stimulation of GTPγS binding. O-2050 was tested for its ability to block stimulation of GTPγS binding by CP 55,940. […], log concentration of O-2050; Y axis, % stimulation by CP 55,940.
The above properties of O-2050 are indicative of an antagonist. Therefore, the ability of O-2050 to block the agonist effects of CP 55,940, a highly efficacious cannabinoid, in the in vitro GTPγS binding assay in rat brain tissue was tested. The assay is an in vitro functional measure of CB1 receptor activation.

[7] = mouse tetrad, i.v. administration, read-out: Analgesia ED50
[8] = mouse tetrad, i.v. administration, read-out: Sedation ED50
[9] = mouse tetrad, i.v. administration, read-out: Temperature (hypothermia) ED50
[10] = mouse tetrad, i.v. administration

T1 sequence (P20272 whole entry): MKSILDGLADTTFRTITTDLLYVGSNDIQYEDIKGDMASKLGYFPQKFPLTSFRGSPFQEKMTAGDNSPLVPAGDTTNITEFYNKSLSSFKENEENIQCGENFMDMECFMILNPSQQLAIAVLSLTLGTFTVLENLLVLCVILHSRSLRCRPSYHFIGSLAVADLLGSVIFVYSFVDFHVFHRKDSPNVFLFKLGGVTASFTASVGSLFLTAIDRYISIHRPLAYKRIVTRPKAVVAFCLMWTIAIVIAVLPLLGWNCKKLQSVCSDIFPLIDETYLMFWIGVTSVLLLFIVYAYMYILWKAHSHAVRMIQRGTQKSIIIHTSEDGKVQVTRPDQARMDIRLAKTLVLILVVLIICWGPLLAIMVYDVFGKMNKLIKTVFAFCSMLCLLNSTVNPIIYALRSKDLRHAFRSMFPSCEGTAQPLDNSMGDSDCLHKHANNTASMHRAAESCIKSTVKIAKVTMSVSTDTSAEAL
Chain of CB2 receptor (P34972 whole entry): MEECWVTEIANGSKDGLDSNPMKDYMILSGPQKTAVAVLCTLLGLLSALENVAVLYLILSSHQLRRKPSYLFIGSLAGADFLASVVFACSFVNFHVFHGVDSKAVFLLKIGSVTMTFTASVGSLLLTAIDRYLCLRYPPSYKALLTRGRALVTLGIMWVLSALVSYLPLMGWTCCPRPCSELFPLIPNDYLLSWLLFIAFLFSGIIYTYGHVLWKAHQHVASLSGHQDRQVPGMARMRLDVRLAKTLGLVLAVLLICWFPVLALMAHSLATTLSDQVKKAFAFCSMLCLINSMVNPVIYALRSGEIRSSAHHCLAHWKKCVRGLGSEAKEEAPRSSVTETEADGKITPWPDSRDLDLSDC
T2 sequence (P47746 whole entry): as the sequence (P20272 whole entry) above, with E95D counted along it

| SMILES | Agonist potency in mouse tetrad test (in words) (mice; i.v. administration) | ED50 (mice; [7]) | ED50 (mice; [8]) | ED50 (mice; [9]) | Negative stimulation of GTPγS binding / agonist character (in words) (CB1 receptor [2]) | GTPγS stimulation (1 μM) (CB1 receptor [2]) | CB2 receptor affinity (in words) (CB2 receptor) | Kd (CB2 receptor) | CB1 receptor affinity (in words) (CB1 receptor [3]) | Kd (CB1 receptor [3]) | further results |
| --- | --- | --- | --- | --- | --- | --- | --- | --- | --- | --- | --- |
| Cc1c(C(=O)NN2CCCCC2)nn(-c2ccc(Cl)cc2Cl)c1-c1ccc(Cl)cc1 [SR141716A] | – | – | – | – | – | – | – | – | – | – | Enhancement of amplitude of electrically-evoked contractions (mouse vas deferens [1]): does enhance |
| CCCCS(=O)(=O)NCCCC#CCc1cc(O)c2c(c1)OC(C)(C)C1CC=C(C)CC21 (stereo not shown) [Compound O-1993] | moderate to low pharmacological agonist potency | 14 mg/kg | 7.6 mg/kg | 12 mg/kg | weak agonists | 30% | only moderate affinity | 86 ± 7 nM | moderate affinity | 70 ± 10 nM | – |
| CCS(=O)(=O)NCCCC#CCc1cc(O)c2c(c1)OC(C)(C)C1CC=C(C)CC21 (stereo not shown) [Compound O-1991, 3-Norpentyl 3-(6-ethanesulfamidohex-2-yne-yl)-Δ^8-tetrahydrocannabinol] | moderate to low pharmacological agonist potency | 0.9 mg/kg | 1.7 mg/kg | 0.8 mg/kg | weak agonists | 29% | high affinity | 1.4 ± 0.2 nM | moderate affinity | 20 ± 13 nM | – |
| CC1=CCC2C(C1)c1c(O)cc(CC#CCCCNS(C)(=O)=O)cc1OC2(C)C (stereo not shown) [Compound O-2050, 3-Norpentyl-3-(6-methanesulfamidohex-2-yne-yl)-Δ^8-tetrahydrocannabinol] | – | > 30 mg/kg | 4.3 mg/kg | > 30 mg/kg | failed to produce negative stimulation | 11% | high affinity | 0.2 ± 0.06 nM | high affinity | 2.5 ± 0.4 nM | Sedation (in words) (mice; mouse tetrad): only weakly active; Analgesia ED50 (mice; [10]): >30 mg/kg; Temperature (hypothermia) ED50 (mice; [10]): >30 mg/kg; Enhancement of amplitude of electrically-evoked contractions (mouse vas deferens [4]): did not enhance; Kb (CB1 receptor [5]): 1 nM; Dextral Shift of WIN 55,212-2 log concentration-response curve (CB1 receptor [5]; 1 nM O-2050): 2.8; Dextral Shift of WIN 55,212-2 log concentration-response curve (CB1 receptor [5]; 10 nM O-2050): 7.5; Dextral Shift of WIN 55,212-2 log concentration-response curve (CB1 receptor [5]; 20 nM O-2050): 15; Dextral Shift of WIN 55,212-2 log concentration-response curve (CB1 receptor [5]; 100 nM O-2050): 104; Kb (CB1 receptor [6]): 1 nM |
| CCS(=O)(=O)NCCCCC(C)(C)c1cc(O)c2c(c1)OC(C)(C)C1CC=C(C)CC21 (stereo not shown) [Compound O-2113, 1,1-Dimethyl-5-ethanesulfamido-Δ^8-tetrahydrocannabinol] | potent cannabinoid agonists | 0.3 mg/kg | 0.4 mg/kg | 1.4 mg/kg | – | – | high affinity | – | high affinity | 1.7 ± 0.3 nM | – |
| CCCCCc1cc(O)c2c(c1)OC(C)(C)[C@@H]1CCC(C)=C[C@@H]21 [THC, reference compound] | – | – | – | – | – | 15% | – | – | – | – | – |
| CC1=CCC2C(C1)c1c(O)cc(C(C)(C)CCCCNS(=O)(=O)c3ccccc3)cc1OC2(C)C (stereo not shown) [Compound O-2048, 1,1-Dimethyl-5-phenylsulfamido-Δ^8-tetrahydrocannabinol] | potent cannabinoid agonists | 2.8 mg/kg | 0.3 mg/kg | 5.6 mg/kg | – | – | high affinity | – | high affinity | 4.1 ± 0.4 nM | – |
